Experimental data published in patent US20100144683A1, “METHODS FOR GENERATING MAMMALIAN MODELS OF ATOPIC DISEASES, AND SCREENING FOR THEIR TREATMENT” (ASSOCIATION POUR LA RECHERCHE A L'IGBMC (ARI), priority 2006, published 2010).
“Also recorded” adds a separate entry of the source.

Legend:
[1] = Calcemia and overall health upon topical application; format: in vivo; conditions: MC903 4 nmoles daily or 1α,25(OH)2D3 0.25 nmole every second day on ears, 16 days
Procedure: 1α,25-(OH)2D3, or MC903 and ethanol (vehicle) were applied to WT mouse right and left ears, respectively. Two shaved areas (1 cm^2 each) of dorsal skin were also treated with MC903 or ethanol. […]

[2] = system: TSLP; assay: Serum TSLP levels after topical application; format: in vivo, mouse; conditions: MC903 topical; D2-D4, undetectable at D0
Procedure: (§1) 1α,25-(OH)2D3, or MC903 and ethanol (vehicle) were applied to WT mouse right and left ears, respectively. Two shaved areas (1 cm^2 each) of dorsal skin were also treated with MC903 or ethanol.

[3] = system: VDR; assay: MC903 topical treatment of VDR control, VDRep-/- and VDR-/- mice; format: in vivo, mouse
Description: To investigate whether the MC903-induced TSLP expression and appearance of an AD-like skin inflammation were mediated through VDR, MC903 was topically applied on ears of “floxed” VDR control (CT) mice (VDR^L2/L2 mice, in which both VDR alleles bear LoxP sites) and of their VDR^ep−/− littermates [K14-Cre^(tg/0)/VDR^L2/L2 mice in which the VDR alleles are selectively ablated in keratinocytes and which were obtained by crossing)K14-Cre^(tg/0) transgenic mice (LI et al., Development, vol. 128, p: 675-688, 2001) with floxed VDR^L2/L2 mice (our unpublished data)].
The FIGS. 3 a and b show the appearance of MC903-treated ears of VDR control (CT) (a) and VDR^ep−/− mice (b) at D17. White arrows in (a) points to lesioned skin.
The FIGS. 3 c and d show Hematoxylin and eosin-stained ear sections. Yellow arrows in inset of (c) point to three of many eosinophils (red cytoplasmic staining) in MC903-treated CT skin. Black arrows point to the dermal/epidermal junction. hf, hair follicle; u, utriculi (resulting from hair follicle degeneration in VDR^ep−/− mice). (Scale bar, 50 μm).

[4] = target: T1, RXR/VDR heterodimers (Mus musculus, UniProt P48281); assay: MC903 topical treatment of RXRαβep-/- mice, TSLP RNA (Q-PCR); format: in vivo; conditions: D4, versus RXRαβ CT
T1 construct: from tissue; host or cells: mouse ear skin (epidermal keratinocytes), topical treatment in vivo
T1 sequence (P48281 1-422): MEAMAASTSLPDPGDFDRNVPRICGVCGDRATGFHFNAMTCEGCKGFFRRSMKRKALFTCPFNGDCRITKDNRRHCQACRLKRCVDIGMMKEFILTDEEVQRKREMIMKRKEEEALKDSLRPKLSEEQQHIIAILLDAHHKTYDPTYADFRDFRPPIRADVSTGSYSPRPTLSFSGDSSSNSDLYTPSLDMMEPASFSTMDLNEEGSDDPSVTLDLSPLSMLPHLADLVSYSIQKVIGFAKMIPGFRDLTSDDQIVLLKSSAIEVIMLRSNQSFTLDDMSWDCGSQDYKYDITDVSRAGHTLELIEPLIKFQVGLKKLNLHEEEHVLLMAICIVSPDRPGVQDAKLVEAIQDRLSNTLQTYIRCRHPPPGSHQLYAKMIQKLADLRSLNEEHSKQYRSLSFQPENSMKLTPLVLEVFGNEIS
Description: To examine whether the effect of MC903 was transduced through RXR/VDR heterodimers, ears of RXRαβ^ep−/− mice (tamoxifen-treated K14-Cre-ERT2^(tg/0)/RXRαβ^L2/L2/RXRβ^L2/L2; LI et al., 2005, abovementioned), as well as their control littermates (RXRαβ CT), were topically-treated with MC903.

[5] = system: ears of CD1 wildtype (WT) mice; assay: AD-like phenotype upon long-term ear topical treatment (appearance, histology, IHC); format: in vivo, mouse
Description: White arrows point to the dermal/epidermal junction. FIGS. 2a and b show the ear appearance at day 17 after ethanol and MC903 treatment, respectively. FIGS. 2c and d show hematoxylin and eosin-stained (HE) ear sections of ethanol- and MC903-treated mice at day 17, respectively. Eosinophil-selective cytoplasmic red staining is pointed by arrows in the inset of (d). FIG. 2 u show hematoxylin and eosin-stained (HE) ear sections of ethanol- and 1α,25(OH)2D3 treated mice every second day, at a dose of 0.25 nmole, at day 18 (D18). FIGS. 2 e to n show the result of IHC performed on ear sections from ethanol- or MC903-treated mice at D17, with antibodies against GR1 (e and f), CD3 (g and h), CD4 (i and j), CD8 (k and l) and CD11c (m and n). Yellow color corresponds to staining of antibodies, whereas blue corresponds to DAPI staining of nuclei. FIGS. 2 o and p show the Toluidin blue (TB)-staining of ear sections. Red arrows point to one of the mast cells with intense blue color in the dermis.

[6] = system: TSLP; assay: TSLP RNA level (Q-PCR) in skin and organs after topical application of NR agonists; format: in vivo, mouse; conditions: increasing doses (MC903: 0.4, 1 or 4 nmoles per ear)
[7] = system: cytokine RNA; assay: Cytokine RNA levels (Q-PCR) in treated ears; format: in vivo, mouse; conditions: MC903 4 nmoles daily on ears; D16
[8] = system: TSLP; assay: TSLP RNA level (Q-PCR) in skin and organs after topical application of NR agonists; format: in vivo, mouse
Procedure: Four nmoles of ligands dissolved in ethanol were topically applied to whole ears of 6-8-week-old female CD1 wildtype (WT) mice for 4 consecutive days (D1 to D4), and TSLP RNA levels were determined on day 5.
as §1

[9] = system: serum IgE and IgG; assay: Serum IgE and IgG levels (ELISA); format: in vivo, mouse; conditions: MC903 topically for 16 days on ears
[10] = system: TSLP; assay: TSLP immunohistochemistry on ear and dorsal skin sections; format: in vivo, mouse; conditions: MC903-treated ear and dorsal skin; D4
Description: The white arrowhead points to autofluorescent erythrocytes, and white arrows point to the dermal/epidermal junction. (Scale bar, 50 μm).

[11] = system: OVA-induced asthma mouse model; assay: Ovalbumin (OVA)-induced asthma mouse model with ear topical MC903; format: in vivo; conditions: MC903 1.125 nmole on each ear every other day, day 0 to 21, day 22
Procedure: An experimental ovalbumin (OVA)-induced asthma mouse model was used. Mice were intraperitoneally injected with 50 μg OVA adsorbed on 2 mg aluminium hydroxide (Alum) on days 0 and 7, and were then challenged on days 18, 19, 20 and 21 by intranasal instillations of 10 μg OVA. As controls, mice were intraperitoneally injected with Alum, and receive intranasal instillations of saline. These mice were topically treated with either ethanol (as a control) or MC903 (1.125 nmole) on each ear every other day from day 0 to day 21 to generate an ear AD. Assessment of respiratory function, collection of bronchoalveolar lavage (BAL) and lung were performed on day 22. […] Aerosolized saline was used as control.

[12] = system: CYP24A1; assay: CYP24A1 RNA level (Q-PCR) in MC903-treated ear; format: in vivo, mouse; conditions: MC903 topically every day; D2-D4
Procedure: as §1

[13] = system: eosinophils; assay: Blood and tissue eosinophilia; format: in vivo, mouse; conditions: MC903-treated mice
Description: FIG. 2 s show the hematoxylin and eosin-stained sections of ear draining lymph node and liver of ethanol- and MC903-treated mice at D17. Yellow arrows point to three of many eosinophils (red cytoplasmic staining) in sections of lymph node and liver of MC903-treated mice. (Scale bars, 50 μm).

In the case of “26,27-cyclo-22-ene-1α,24S-dihydroxyvitamin D3 [MC903]”, the “hypercalcemia, overall health, weight loss” value [1] is reported as “No hypercalcemia or overall health impairment and weight loss”, the “serum TSLP levels” value [2] is reported as “increased” and the “skin inflammation in VDR-/- mice” value [3] is reported as “no AD-like skin inflammation”. The “TSLP expression (Q-PCR) in skin of VDR CT mice” value ([3]; D4) was “strongly induced”, the “TSLP expression (Q-PCR) in skin of VDR-/- mice” value ([3]; D4) was “not at all” and the “TSLP expression (Q-PCR) in skin of VDRep-/- mutants” value ([3]; D4) was “weakly increased”. The “ear inflammation in VDR CT mice” value ([3]; D17) was “AD-like inflammation was obvious”, the “ear inflammation in VDRep-/- mice” value ([3]; D17) was “did not show any sign of inflammation” and the “induction of TSLP in RXRαβep-/- skin” value [4] was “severely reduced”. The ear appearance ([5]; MC903 4 nmoles daily or 1α,25(OH)2D3 0.25 nmole every second day, from D5, D17) was “reddening and swelling, that worsened with time; also recorded: red, scaly, swollen and crusted”, the “ear histology (hematoxylin/eosin)” value ([5]; MC903 4 nmoles daily, D17, 1α,25-(OH)2D3 0.25 nmole every other day, D18) was “epidermal hyperplasia and a heavy dermal cell infiltrate” and the “CD11c+ dermal dendritic cells (IHC)” value ([5]; MC903-treated ears, D17) was “large increase”. The “GR1-positive cells in dermis (IHC)” value ([5]; MC903-treated ears, D17) was “large number of positive cells”, the “T lymphocytes (CD3+) in dermis (IHC)” value ([5]; MC903-treated ears, D17) was “Numerous” and the “increase of mast cells in the dermis” value ([5]; MC903-treated ears, D17, Toluidin blue staining) was 4 fold. The “dose dependence of TSLP transcripts” value [6] was “dose-dependent increase”, the “TSLP transcripts in treated ears, long-term” value [7] was “markedly increased” and the “Th2-type cytokine transcripts (IL-4, IL-5, IL-13, IL-31, IL10 and IL-6)” value [7] was “significantly increased”. The “expression of Th1-type cytokine IFN-γ” value [7] was “enhanced”, the “expression of Th1-type cytokine TNF-β” value [7] was “unchanged” and the “TSLP RNA in treated dorsal skin” value ([8]; MC903 on shaved dorsal skin (1 cm^2), D2-D4) was “increased”. The “TSLP RNA levels in treated right ear” value ([8]; MC903 topically every day on right ear of WT mice, D2, D3, D4, ethanol on left ear) was “increased in right ears, and further increased on D3 and D4”, the “TSLP transcripts in other organs (lung, thymus, salivary gland, tongue, colon, spleen, lymph node, liver)” value ([8]; MC903 topically on ears, D5) was “no increase” and the “serum IgE and IgG levels” value [9] was “increased”. The “TSLP expression by immunohistochemistry in epidermis” value [10] was “readily detected”, the BAL cell numbers ([11]; OVA model) was “higher BAL cell numbers” and the “airway epithelium hypertrophy (lung sections)” value ([11]; OVA model) was “increased hypertrophy in airway epithelium”. The “lung inflammatory infiltration (lung sections)” value ([11]; OVA model) was “higher perivascular and peribronchial lung inflammatory infiltrations; also recorded: enhanced airway inflammation”, the “airway hyperresponsiveness (AHR), whole-body plethysmography” value ([11]; OVA sensitized and challenged) was “increased airway hyperresponsiveness” and the “CYP24A1 transcripts in treated ear” value [12] was “increased”. The “eosinophils in ear-draining lymph nodes, liver and spleen” value ([13]; D16) was “increased number of eosinophils” and the “blood eosinophils (differential blood cell counts)” value ([13]; ethanol-treated mice 204±134) was 693±220 cells/μl.
